The test system of test [1] is planktonic cells of Staphylococcus spp. The experiment in a line: Checkerboard combination assay, planktonic cells, synergistic combinations (Table 3). In kind it is cell-based. Particulars: mean. As to the method: The checkerboard assay, as previously described, was used for the determination of the fractional inhibitory concentration index (FICI). Briefly, 50 µL of MHB was distributed into each well of a 96-well microplate. ATBs were serially diluted along the abscissa, and NPs were serially diluted along the ordinate. Then, 100 µL of bacterial inoculum (1.5 × 10^6 CFU/mL) was added to each well and incubated at 37°C for 24 h. The final concentration ranged from 0.125 to 128 µg/mL for ATBs and 4–512 µg/mL for NPs. After incubation, a volume of 40 µL of INT solution (0.2 mg/mL) was added to each well, and the microplate was incubated at 37°C for 30 min. The wells containing bacterial inoculum and MHB were used as a positive control, while wells containing only MHB + 1% glucose were used as a negative control and used as a blank. Viable bacteria cells change the yellow dye of INT to a pink color. The MICs were considered to be the lowest NP concentrations that prevented the color change medium. Subsequently, the FICI was calculated according to the formula FICI = (MIC of the ATBs in combination/MIC of the ATBs alone) + (MIC of a natural substance in combination/MIC of the natural substance alone). FICI values were interpreted as follows: synergy when FICI ≤ 0.5; additive when 0.5 < FICI ≤ 1; indifference when 1 < FICI ≤ 4; and antagonism when FICI > 4.

In another test the test system is S. epidermidis biofilm. The experiment in a line: Time-kill kinetic assay on biofilm inhibition. The format is cell-based, Staphylococcus epidermidis. Particulars: at 24 h. As to the method:
The biofilm formation inhibitory activity of NPs and ATBs was carried out according to the method previously described. A total of 100 µL of bacterial inoculum (1.5 × 10^6 CFU/mL) was used, and 100 µL of each sample was added to the microplate to achieve final concentrations ranging from 0.25 µg/mL to 128 µg/mL for ATBs and from 8 µg/mL to 1024 µg/mL for NPs. Then, the microplate was incubated at 37°C for 24 h. After incubation, the plates were gently emptied and washed three times with a phosphate buffer solution at pH 7.2. Then, the MTT solution (0.5 mg/mL) prepared in PBS was introduced into each well, and the microplate was further incubated at 37°C for 24 h. Untreated wells containing bacterial suspension and MHB supplemented with 1% glucose were considered positive controls, and wells containing only MHB+1% glucose without bacteria were used as blanks. After incubation, the MTT solution was aspirated, then 150 µL of DMSO was introduced to dissolve the formazan crystal formed by viable bacteria, and the optical density (OD) was measured at 570 nm using a microplate reader (VERSA-max). The percentage of biofilm inhibition was calculated using the formula below, and the minimal biofilm inhibitory concentration (MBIC) was recorded as the lowest concentration of NPs or ATBs that inhibited 100% of biofilm:(1) % biofilm inhibition=ODcontrol−ODblank−ODtest−ODblank/ODcontrol−ODblank×100.
The five best synergistic antibiofilm combinations were selected, and their ability to inhibit biofilm formation and eradication as a function of time was evaluated at 4-h intervals for 24 h by the microtiter plate method, as previously described. The synergistic antibiofilm combinations selected were with FICI < 0.4, named C1 to C5. C1: cefixime (5.33 µg/mL) + thymol (32 µg/mL); C2: cefazolin (1.16 µg/mL) + thymol (21.33 µg/mL); C3: amikacin (0.18 µg/mL) + curcumin (37.33 µg/mL); C4: kanamycin (0.25 µg/mL) + curcumin (14 µg/mL); and C5: amoxicillin (1.16 µg/mL) + curcumin (21.33 µg/mL). The kinetics of biofilm inhibition and eradication were performed as described above for the biofilm inhibition and eradication assay using the indicated combinations, followed by the reading of the optical densities (570 nm) at 4-h intervals over 24 h (0, 4, 8, 12, 16, and 24 h). In both cases, experiments were carried out three times in triplicate.

[2] abbreviates: C1 and its components (cefixime 5.33 µg/mL, thymol 32 µg/mL).
The mark [3] stands for this setting: C2 and its components (cefazolin 1.16 µg/mL, thymol 21.33 µg/mL).

By MIC is commonly meant the lowest concentration found to suppress growth.

Read-outs that look alike come from different tables or passages of the source.

On to `O=C(O)c1cc(O)c(O)c(O)c1` [Gallic acid, 3,4,5-trihydroxybenzoic acid], for which, in test [1] (24 h, read-out: MIC alone, NPs), the MIC stood at 512 µg/mL.
Take `C=CC1=C(C(=O)O)N2C(=O)[C@@H](NC(=O)/C(=N\OCC(=O)O)c3csc(N)n3)[C@H]2SC1` [Cefixime, cefixime]: the “OD (570 nm), biofilm inhibition” value in the test on S. epidermidis biofilm (setting [2]) amounted to 0.84.
As for `COc1cc(/C=C/C(=O)CC(=O)/C=C/c2ccc(O)c(OC)c2)ccc1O` [Curcumin, curcumin], in test [1] (24 h, read-out: MIC alone, NPs), the MIC stood at 384 µg/mL.
As for `Cc1nnc(SCC2=C(C(=O)O)N3C(=O)[C@@H](NC(=O)Cn4cnnn4)[C@H]3SC2)s1` [Cefazolin, cefazolin], the “OD (570 nm), biofilm inhibition” value in the test on S. epidermidis biofilm (setting [3]) amounted to 1.27.
For `Cc1ccc(C(C)C)c(O)c1` [Thymol, thymol], the “OD (570 nm), biofilm inhibition” value worked out at 0.67 in the test on S. epidermidis biofilm (setting [2]) and 0.96 with S. epidermidis biofilm (setting [3]). Besides, in test [1] (24 h, read-out: MIC alone, NPs), the MIC stood at 427 µg/mL.
As to `C[C@H]1c2cccc(O)c2C(=O)C2=C(O)[C@]3(O)C(=O)C(C(N)=O)=C(O)[C@@H](N(C)C)[C@@H]3[C@@H](O)[C@@H]21` [Doxycycline, doxycycline], in test [1] (read-out: MIC alone, ATB), the MIC was 7 µg/mL.
On the same count and under the same terms, the figure for `NCC[C@H](O)C(=O)N[C@@H]1C[C@H](N)[C@@H](O[C@H]2O[C@H](CN)[C@@H](O)[C@H](O)[C@H]2O)[C@H](O)[C@H]1O[C@H]1O[C@H](CO)[C@@H](O)[C@H](N)[C@H]1O` [Amikacin, amikacin] is 1.16 µg/mL.

The values above are taken from paper PMC12339163, “Combining Plant Bioactives With Antibiotics for Enhanced Antibiofilm Activity Against Uropathogenic Staphylococcus spp. and Cytotoxicity Evaluation” (Advances in Pharmacological and Pharmaceutical Sciences, 2025).
